Measured values: patent publication US11946092B2, “Method for producing 2-keto-3-deoxygluconate from 2-(acetylamino)-2-deoxy-d-gluconic acid by two enzymes” (SHANDONG UNIVERSITY, priority 2022, dated 2024)

Assays:
deaminase OngC = test: Substrate specificity analysis of OngC (ammonia production); type: biochemical, Pseudoalteromonas prydzensis ACAM 620; settings: 0.5 μM OngC, 10 mM substrate, 10 mM Bis-Tris-HCl (pH 7.5), 25° C., 30 min; FIG. 4B
Procedure: Substrate specificity assays were performed with GlcN1A, D-glucosamine, D-galactosamine and D-mannosamine. GlcN1A was prepared by incubating 10 μM OngB with 10 mM GlcNAc1A in 10 mM Bis-Tris-HCl (pH 7.5) at 25° C. for 4 h. Standard reaction system contained 0.5 μM OngC, 10 mM substrate and 10 mM Bis-Tris-HCl (pH 7.5). Reactions were conducted at 25° C. for 30 min. The production of ammonia in the reaction mixture was determined with an AMMONIA (Rapid) ASSAY PROCEDURE. One unit of enzyme (U) is defined as the amount of enzyme required to release 1 μmol of ammonia per minute.

deacetylase OngB = test: Substrate specificity analysis of OngB (acetate production); type: biochemical, Pseudoalteromonas prydzensis ACAM 620; settings: 5 μM OngB, 25 mM substrate, 10 mM Bis-Tris-HCl (pH 7.5), 25° C., 30 min; FIG. 4A
Procedure: Substrate specificity assays were performed with GlcNAc1A, GlcNAc, GlcNAc-6-P, N-acetyl-D-glutamate and N-acetyl-D-serine. Standard reaction system contained 5 μM OngB, 25 mM substrate and 10 mM Bis-Tris-HCl (pH 7.5). Reactions were conducted at 25° C. for 30 min. The production of acetate in the reaction mixture was determined with an Acetic Acid (ACS Analyser Format) Assay Kit. One unit of enzyme (U) is defined as the amount of enzyme required to release 1 μmol of acetate per minute.

For N[C@H]1C(O)O[C@H](CO)[C@H](O)[C@@H]1O (stereo partly drawn) [D-galactosamine], the “OngC activity towards substrate (production of ammonia)” value (from here on “OngC activity towards substrate”) (deaminase OngC) was “little or no activity”.
In the case of N[C@H]1C(O)O[C@H](CO)[C@@H](O)[C@@H]1O (stereo partly drawn) [D-glucosamine], the “OngC activity towards substrate” value (deaminase OngC) was “little or no activity”.
N[C@@H]1C(O)O[C@H](CO)[C@@H](O)[C@@H]1O (stereo partly drawn) [D-mannosamine] was tested, and the “OngC activity towards substrate” value (deaminase OngC) was “little or no activity”.
N[C@@H](C(=O)O)[C@@H](O)[C@H](O)[C@H](O)CO [GlcN1A, 2-(amino)-2-deoxy-D-gluconic acid] was tested, and the “OngC activity towards substrate” value (deaminase OngC) was “high substrate specificity”.
CC(=O)N[C@@H](C(=O)O)[C@@H](O)[C@H](O)[C@H](O)CO [GlcNAc1A, 2-(acetylamino)-2-deoxy-D-gluconic acid] was tested, and the “OngB activity towards substrate (production of acetate)” value (shortened to “OngB activity towards substrate”) (deacetylase OngB) was “high substrate specificity”.
CC(=O)N[C@H]1C(O)O[C@H](CO)[C@@H](O)[C@@H]1O (stereo partly drawn) [GlcNAc, N-acetyl-D-glucosamine] was tested, and the “OngB activity towards substrate” value (deacetylase OngB) was “little or no activity”.
For CC(=O)N[C@@H]1[C@@H](O)[C@H](O)[C@@H](COP(=O)(O)O)O[C@@H]1O [GlcNAc-6-P], the “OngB activity towards substrate” value (deacetylase OngB) was “little or no activity”.
CC(=O)N[C@H](CCC(=O)O)C(=O)O [N-acetyl-D-glutamate] was tested, and the “OngB activity towards substrate” value (deacetylase OngB) was “little or no activity”.
In the case of CC(=O)N[C@H](CO)C(=O)O [N-acetyl-D-serine], the “OngB activity towards substrate” value (deacetylase OngB) was “little or no activity”.
